Test results from PubChem BioAssay AID365 (MTDP, 2006).
Active and inactive are the calls of the source. No rule for the calls is given here.

The compounds below were run against Ribonuclease HI (Escherichia coli (strain K12)) (UniProt P0A7Y4) (assay: inhibition of bacterial ribonuclease H activity – biochemical, FRET RNA/DNA duplex cleavage, dose response (AID 365)). Settings: E. coli RNase H, FRET RNA/DNA cleavage fluorescence.
Sequence of Ribonuclease HI (Escherichia coli (strain K12)) (P0A7Y4 whole entry, looked up): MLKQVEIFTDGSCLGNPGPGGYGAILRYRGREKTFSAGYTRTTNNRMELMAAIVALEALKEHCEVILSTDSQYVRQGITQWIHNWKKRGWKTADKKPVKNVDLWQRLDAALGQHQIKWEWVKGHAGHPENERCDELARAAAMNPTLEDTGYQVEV
`Cc1sc2nc(-c3ccc([N+](=O)[O-])cc3)[nH]c(=O)c2c1C` gave an IC50 of 1.6 µM. In the case of `O=C1NC(=S)N(c2ccccc2F)C(=O)/C1=C/c1ccc(OCc2cccc(C(=O)O)c2)cc1`, the IC50 is reported as “inactive”. With `COc1ccc(C2COc3cc(O)c(O)cc3C2)cc1` (stereo not given) the IC50 was “inactive”. In the case of `CCOc1ccc(NC(=O)c2c(NC(=O)c3ccco3)sc3c2CCCCC3)cc1`, the IC50 is reported as “inactive”. With `CC1=NN(c2ccc(S(N)(=O)=O)cc2)C(=O)/C1=C/c1ccc(-c2ccc(Cl)cc2Cl)o1` the IC50 was 9 µM. With `O=C1NN(c2ccc(I)cc2)C(=O)/C1=C\c1ccc(O)c(O)c1` the IC50 was 3.5 µM. For `Oc1cc(CN2COc3ccccc32)c(O)cc1CNC1CCCCC1`, the IC50 was > 100 µM (inactive). In the case of `C=CCn1c(N)c(-c2nc3ccccc3[nH]2)sc1=S`, the IC50 is reported as “inactive”. For `Cc1c(O)c(Br)c(C)c(O)c1Br` (tested in a mixture with another compound), the IC50 was > 100 µM (inactive). With `O=C1NC(=S)N(c2ccccc2F)C(=O)C1=Cc1ccco1` the IC50 was 1.1 µM.
